Source: patent publication US5834259A, “Process and composition for preparing D-aspartic acid” (Monsanto Company, priority 1996, dated 1998)

How the values were obtained:
Type in all cases: biochemical, E. coli K12
[1] = target: T1, L-aspartate-α-decarboxylase (Escherichia coli, UniProt P0A790); assay: Activity towards D/L-glutamate and D/L-alanine, D/L-aspartate as control (Example 8); details: for concentration in supernatant fluid / percent remaining: racemate substrate, pH 7.0
T1 construct: expressed in transfected cells; host or cells: E. coli W3110 transformed with pIF309 = strain NS3291 (ATCC 98675), whole cells
Procedure: D/L-aspartate was run as a control.
Substrates were prepared by dissolving solid amino acid racemate in approximately 75 ml deionized H2 O and adjusting the pH to 7.0 with 10N NaOH. The volume was then brought to 100 ml with deionized H2 O. The cells used were stored frozen for about 1 month and then thawed and stored in a refrigerator for about 1 month prior to running the experiments.
The reaction was run the same as described in the prior Examples. Samples of supernatant fluid, approximately 0.20 ml, were removed over time, centrifuged and stored frozen before analysis by HPLC as described in the prior Examples.

[2] = target: T1, L-aspartate-α-decarboxylase; assay: 1.0M D/L-aspartate, 50 g/l cells, reaction B (Example 6); details: 37° C.
Procedure: 1.0M D/L-aspartate was tested as a substrate for two enzyme cell loads, 100 g/l cells, referred to here as reaction "A", and 50 g/l cells, referred to here as reaction "B".
133.1 g of D/L-aspartic acid was dissolved in approximately 600 ml deionized H2 O and pH was adjusted to 7.0 with NaOH, using 100 ml of 10N NaOH and a small amount of 1.0N NaOH. The substrate for reaction A was brought to 963 ml with deionized H2 O. The reaction was started with 137 ml cells that were stored in the cold room. For reaction B, the substrate was brought to a volume of 981.5 ml. The reaction was started with […] cells.
Both reactions were carried out in 2 L fermentors at pH 7.0 without constant adjustments and at 37° C. Samples were removed over time, centrifuged and the supernatant fluid was diluted and submitted for D- and L-aspartic acid HPLC analysis.

[3] = target: T1, L-aspartate-α-decarboxylase; assay: Temperature study, 37° C. (Example 9); details: for concentration in supernatant fluid / percent remaining: 1.0M, 100 g/l cells
Procedure: (§1) 133.1 g (1 mol) of D/L-aspartic acid was dissolved in deionized H2 O and the pH was adjusted to 7.0 with 10N NaOH, approximately 100 ml. Cells, freshly thawed from -80° C., were added to achieve a final concentration of 100 g/l. Three 2 L fermentors were each charged with 963 ml of substrate solution and 137 ml of cells and then heated to 37° C. and 45° C. while mixing at 300 rpm or heated to 50° C. while mixing at 450 rpm. Samples, approximately 1 ml, were removed over time and pH adjusted to 7.0 with either NaOH or HCl. After centrifugation to remove cells, the supernatant fluid was analyzed for both D- and L-aspartic acid.

[4] = target: T1, L-aspartate-α-decarboxylase; assay: Temperature study, 50° C. (Example 9); details: 1.0M, 100 g/l cells
Procedure: as §1

For `N[C@@H](CC(=O)O)C(=O)O` [L-Asp, L-aspartic acid], the “substrate specificity of the enzyme” value [1] was “the only substrate for the enzyme”, the “concentration in supernatant fluid” value ([1]; 0 hr) was 26.810 mg/mL and the “concentration in supernatant fluid” value ([1]; 3.5 hr) was 14.050 mg/mL. For the same compound, the percent remaining ([1]; 3.5 hr) was 52.406%, the “concentration in supernatant fluid” value ([1]; 8.5 hr) was 12.660 mg/mL and the percent remaining ([1]; 8.5 hr) was 47.221%. For the same compound, the “concentration in supernatant fluid” value ([1]; 24 hr) was 9.4700 mg/mL, the percent remaining ([1]; 24 hr) was 35.323% and the “concentration in supernatant fluid” value ([1]; 55 hr) was 0.3300 mg/mL. For the same compound, the percent remaining ([1]; 55 hr, 3300 min) was 1.2309%, the percent remaining ([1]; 55 hr, listed as L-aspartic acid, 3300 min) was 1.23% and the “concentration in supernatant fluid” value ([2]; 0.0000 hr) was 57.440 mg/mL. For the same compound, the “concentration in supernatant fluid” value ([2]; 2.0000 hr) was 53.770 mg/mL, the “concentration in supernatant fluid” value ([3]; 0.0000 hr) was 53.700 mg/mL and the “concentration in supernatant fluid” value ([3]; 2.5000 hr) was 48.940 mg/mL. For the same compound, the percent remaining ([3]; 2.5000 hr) was 91.136%, the “concentration in supernatant fluid” value ([3]; 4.0000 hr) was 47.600 mg/mL and the percent remaining ([3]; 4.0000 hr) was 88.641%. For the same compound, the “concentration in supernatant fluid” value ([3]; 6.0000 hr) was 46.170 mg/mL, the percent remaining ([3]; 6.0000 hr) was 85.978% and the “concentration in supernatant fluid” value ([3]; 8.0000 hr) was 44.810 mg/mL. The percent remaining ([3]; 8.0000 hr) was 83.445%, the “concentration in supernatant fluid” value ([3]; 10.000 hr) was 42.120 mg/mL and the percent remaining ([3]; 10.000 hr) was 78.436%. For the same compound, the “concentration in supernatant fluid” value ([3]; 12.000 hr) was 42.120 mg/mL, the percent remaining ([3]; 12.000 hr) was 78.462% and the “concentration in supernatant fluid” value ([3]; 20.000 hr) was 35.960 mg/mL. For the same compound, the percent remaining ([3]; 20.000 hr) was 66.965%, the “concentration in supernatant fluid” value ([3]; 24.000 hr) was 34.840 mg/mL and the percent remaining ([3]; 24.000 hr) was 64.879%. The “concentration in supernatant fluid” value ([3]; 29.000 hr) was 28.040 mg/mL, the percent remaining ([3]; 29.000 hr) was 54.078% and the “concentration in supernatant fluid” value ([3]; 34.000 hr) was 28.040 mg/mL. For the same compound, the percent remaining ([3]; 34.000 hr) was 54.078%, the “concentration in supernatant fluid” value ([3]; 44.000 hr) was 21.670 mg/mL and the percent remaining ([3]; 44.000 hr) was 40.354%. The “concentration in supernatant fluid” value ([3]; 48.000 hr) was 18.440 mg/mL, the percent remaining ([3]; 48.000 hr) was 34.339% and the “concentration in supernatant fluid” value ([3]; 68.000 hr) was 5.9700 mg/mL. The percent remaining ([3]; 68.000 hr) was 11.117%, the “concentration in supernatant fluid” value ([3]; 92.000 hr) was 0.915 mg/mL and the percent remaining ([3]; 92.000 hr) was 1.7039%. The “consumption of the isomer” value ([3]; by 99.75 hours) was “almost completely consumed”, the “concentration in supernatant fluid” value ([4]; 0.000 hr) was 100.0 mg/mL and the “concentration in supernatant fluid” value ([4]; 1.000 hr) was 98.93 mg/mL. For the same compound, the percent remaining ([4]; 1.000 hr) was 108.9%, the “concentration in supernatant fluid” value ([4]; 3.000 hr) was 105.7 mg/mL and the percent remaining ([4]; 3.000 hr) was 83.78%. The “concentration in supernatant fluid” value ([4]; 5.0000 hr) was 106.0 mg/mL, the percent remaining ([4]; 5.0000 hr) was 73.63% and the “concentration in supernatant fluid” value ([4]; 7.000 hr) was 106.6 mg/mL. For the same compound, the percent remaining ([4]; 7.000 hr) was 73.63%, the “concentration in supernatant fluid” value ([4]; 9.000 hr) was 107.3 mg/mL and the percent remaining ([4]; 9.000 hr) was 70.13%. The “concentration in supernatant fluid” value ([4]; 13.50 hr) was 108.4 mg/mL, the percent remaining ([4]; 13.50 hr) was 70.54% and the “concentration in supernatant fluid” value ([4]; 23.00 hr) was 103.3 mg/mL. For the same compound, the percent remaining ([4]; 23.00 hr) was 65.98%, the “concentration in supernatant fluid” value ([4]; 25.00 hr) was 109.0 mg/mL and the percent remaining ([4]; 25.00 hr) was 65.73%. The “concentration in supernatant fluid” value ([4]; 27.00 hr) was 103.6 mg/mL, the percent remaining ([4]; 27.00 hr) was 55.48% and the “concentration in supernatant fluid” value ([4]; 32.00 hr) was 104.4 mg/mL. For the same compound, the percent remaining ([4]; 32.00 hr) was 53.33%, the “concentration in supernatant fluid” value ([4]; 37.50 hr) was 106.5 mg/mL and the percent remaining ([4]; 37.50 hr) was 58.82%. The percent remaining ([4]; 47.00 hr) was 52.77%, the “concentration in supernatant fluid” value ([4]; 52.00 hr) was 107.0 mg/mL and the percent remaining ([4]; 52.00 hr) was 56.28%. The “concentration in supernatant fluid” value ([4]; 57.00 hr) was 119.4 mg/mL, the percent remaining ([4]; 57.00 hr) was 66.89% and the “concentration in supernatant fluid” value ([4]; 71.00 hr) was 104.2 mg/mL. The percent remaining ([4]; 71.00 hr) was 52.65%, the “concentration in supernatant fluid” value ([4]; 77.00 hr) was 105.4 mg/mL and the percent remaining ([4]; 77.00 hr) was 53.35%. For the same compound, the “concentration in supernatant fluid” value ([4]; 81.00 hr) was 104.6 mg/mL, the percent remaining ([4]; 81.00 hr) was 52.69% and the “concentration in supernatant fluid” value ([4]; 99.75 hr) was 108.1 mg/mL. For the same compound, the percent remaining ([4]; 99.75 hr) was 53.93%.
